Experiments:
Assay type in all cases: in vivo
[1] = tested on: windgrass (Apera spica-venti); assay: Test C pre-/postemergence plant response
In short: (§1)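 Visual rating vs untreated controls, 0 (no effect) to 100 (complete control), after 15–25 days in a controlled growth environment. Pre- and postemergence treatments; post plants at 1- to 4-leaf stage, 2–18 cm. Formulation: non-phytotoxic solvent mix plus surfactant.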

[2] = tested on: green foxtail (Setaria viridis); assay: Test C pre-/postemergence plant response
In short: as §1

[3] = tested on: wild oat (Avena fatua); assay: Test C pre-/postemergence plant response
In short: as §1

[4] = tested on: blackgrass (Alopecurus myosuroides); assay: Test C pre-/postemergence plant response
In short: as §1

[5] = tested on: spring wheat (Triticum aestivum); assay: Test C pre-/postemergence plant response
In short: as §1

[6] = tested on: downy bromegrass (Bromus tectorum); assay: Test C pre-/postemergence plant response
In short: as §1

[7] = tested on: annual bluegrass (Poa annua); assay: Test C pre-/postemergence plant response
In short: as §1

[8] = tested on: pigweed (Amaranthus retroflexus); assay: Test C pre-/postemergence plant response
In short: as §1

[9] = tested on: canarygrass (Phalaris minor); assay: Test C pre-/postemergence plant response
In short: as §1

[10] = tested on: Italian ryegrass (Lolium multiflorum); assay: Test C pre-/postemergence plant response
In short: as §1

[11] = tested on: winter barley (Hordeum vulgare); assay: Test C pre-/postemergence plant response
In short: as §1

[12] = tested on: winter wheat (Triticum aestivum); assay: Test C pre-/postemergence plant response
In short: as §1

[13] = tested on: spring barley (Hordeum vulgare); assay: Test C pre-/postemergence plant response
In short: as §1

[14] = tested on: wild mustard (Sinapis arvensis); assay: Test C pre-/postemergence plant response
In short: as §1

[15] = tested on: umbrella sedge (Cyperus difformis); assay: Test B flooded paddy test plant response; conditions: Flood (flooded paddy test), scale 0 to 100, 0 no effect, 100 complete control
In short: (§2)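 Step one: raise plants to 2 leaves. Step two: flood pots 3 cm over the soil and apply compound into the water, keeping this depth. Step three: after 13–15 greenhouse days, score visually versus controls, 0–100, where 100 means complete control.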

[16] = tested on: ducksalad (Heteranthera limosa); assay: Test B flooded paddy test plant response; conditions: Flood (flooded paddy test), scale 0 to 100, 0 no effect, 100 complete control
In short: as §2

[17] = Postemergence, 8 g ai/ha, scale 0 to 100, 0 no effect, 100 complete control
[18] = Postemergence, 16 g ai/ha, scale 0 to 100, 0 no effect, 100 complete control
[19] = Postemergence, 31 g ai/ha, scale 0 to 100, 0 no effect, 100 complete control
[20] = Postemergence, 62 g ai/ha, scale 0 to 100, 0 no effect, 100 complete control
[21] = Preemergence, 8 g ai/ha, scale 0 to 100 (0 no effect, 100 complete control)
[22] = Preemergence, 16 g ai/ha, scale 0 to 100 (0 no effect, 100 complete control)
[23] = Preemergence, 31 g ai/ha, scale 0 to 100 (0 no effect, 100 complete control)
[24] = Preemergence, 62 g ai/ha, scale 0 to 100, 0 no effect, 100 complete control

CCc1cc(-c2ccc(F)cc2)nn1-c1c(O)cnn(C)c1=O [Compound 25]
Plant response rating, Windgrass [1, 17]: 0
Plant response rating, Windgrass [1, 18]: 0
Plant response rating, Windgrass [1, 19]: 35
Plant response rating, Windgrass [1, 20]: 60
Plant response rating, Windgrass [1, 21]: 50
Plant response rating, Windgrass [1, 22]: 75
Plant response rating, Foxtail, Green [2, 17]: 70
Plant response rating, Foxtail, Green [2, 18]: 80
Plant response rating, Foxtail, Green [2, 19]: 95
Plant response rating, Foxtail, Green [2, 20]: 98
Plant response rating, Foxtail, Green [2, 21]: 15
Plant response rating, Foxtail, Green [2, 22]: 25
Plant response rating, Foxtail, Green [2, 23]: 100
Plant response rating, Foxtail, Green [2, 24]: 100
Plant response rating, Oat, Wild [3, 17]: 0
Plant response rating, Oat, Wild [3, 18]: 15
Plant response rating, Oat, Wild [3, 19]: 90
Plant response rating, Oat, Wild [3, 20]: 95
Plant response rating, Oat, Wild [3, 21]: 15
Plant response rating, Oat, Wild [3, 22]: 15
Plant response rating, Oat, Wild [3, 23]: 40
Plant response rating, Oat, Wild [3, 24]: 40
Plant response rating, Blackgrass [4, 17]: 5
Plant response rating, Blackgrass [4, 18]: 35
Plant response rating, Blackgrass [4, 19]: 90
Plant response rating, Blackgrass [4, 20]: 98
Plant response rating, Blackgrass [4, 21]: 0
Plant response rating, Blackgrass [4, 22]: 50
Plant response rating, Blackgrass [4, 23]: 75
Plant response rating, Blackgrass [4, 24]: 75
Plant response rating, Wheat, Spring [5, 17]: 0
Plant response rating, Wheat, Spring [5, 18]: 0
Plant response rating, Wheat, Spring [5, 19]: 0
Plant response rating, Wheat, Spring [5, 21]: 0
Plant response rating, Wheat, Spring [5, 22]: 0
Plant response rating, Wheat, Spring [5, 23]: 0
Plant response rating, Wheat, Spring [5, 24]: 0
Plant response rating, Bromegrass, Downy [6, 17]: 0
Plant response rating, Bromegrass, Downy [6, 18]: 0
Plant response rating, Bromegrass, Downy [6, 19]: 0
Plant response rating, Bromegrass, Downy [6, 20]: 20
Plant response rating, Bromegrass, Downy [6, 21]: 20
Plant response rating, Bromegrass, Downy [6, 22]: 20
Plant response rating, Bromegrass, Downy [6, 23]: 20
Plant response rating, Bromegrass, Downy [6, 24]: 35
Plant response rating, Bluegrass [7, 17]: 0
Plant response rating, Bluegrass [7, 18]: 0
Plant response rating, Bluegrass [7, 19]: 15
Plant response rating, Bluegrass [7, 20]: 15
Plant response rating, Bluegrass [7, 21]: 0
Plant response rating, Bluegrass [7, 22]: 35
Plant response rating, Bluegrass [7, 23]: 40
Plant response rating, Bluegrass [7, 24]: 40
Plant response rating, Pigweed [8, 17]: 0
Plant response rating, Pigweed [8, 18]: 0
Plant response rating, Pigweed [8, 19]: 0
Plant response rating, Pigweed [8, 20]: 20
Plant response rating, Pigweed [8, 21]: 0
Plant response rating, Pigweed [8, 22]: 0
Plant response rating, Pigweed [8, 23]: 0
Plant response rating, Pigweed [8, 24]: 0
Plant response rating, Canarygrass [9, 17]: 0
Plant response rating, Canarygrass [9, 18]: 0
Plant response rating, Canarygrass [9, 19]: 0
Plant response rating, Canarygrass [9, 20]: 40
Plant response rating, Canarygrass [9, 21]: 0
Plant response rating, Canarygrass [9, 22]: 0
Plant response rating, Canarygrass [9, 23]: 10
Plant response rating, Canarygrass [9, 24]: 35
Plant response rating, Ryegrass, Italian [10, 17]: 0
Plant response rating, Ryegrass, Italian [10, 18]: 60
Plant response rating, Ryegrass, Italian [10, 19]: 80
Plant response rating, Ryegrass, Italian [10, 20]: 95
Plant response rating, Ryegrass, Italian [10, 21]: 25
Plant response rating, Ryegrass, Italian [10, 22]: 30
Plant response rating, Ryegrass, Italian [10, 23]: 60
Plant response rating, Ryegrass, Italian [10, 24]: 75
Plant response rating, Barley, Winter [11, 17]: 0
Plant response rating, Barley, Winter [11, 18]: 0
Plant response rating, Barley, Winter [11, 19]: 0
Plant response rating, Barley, Winter [11, 21]: 0
Plant response rating, Barley, Winter [11, 22]: 0
Plant response rating, Barley, Winter [11, 23]: 0
Plant response rating, Barley, Winter [11, 24]: 0
Plant response rating, Wheat, Winter [12, 17]: 0
Plant response rating, Wheat, Winter [12, 18]: 0
Plant response rating, Wheat, Winter [12, 19]: 0
Plant response rating, Wheat, Winter [12, 21]: 0
Plant response rating, Wheat, Winter [12, 22]: 0
Plant response rating, Wheat, Winter [12, 23]: 0
Plant response rating, Wheat, Winter [12, 24]: 0
Plant response rating, Barley, Spring [13, 17]: 0
Plant response rating, Barley, Spring [13, 18]: 0
Plant response rating, Barley, Spring [13, 19]: 0
Plant response rating, Barley, Spring [13, 21]: 0
Plant response rating, Barley, Spring [13, 22]: 0
Plant response rating, Barley, Spring [13, 23]: 0
Plant response rating, Barley, Spring [13, 24]: 0
Plant response rating, Mustard, Wild [14, 17]: 0
Plant response rating, Mustard, Wild [14, 18]: 0
Plant response rating, Mustard, Wild [14, 19]: 0
Plant response rating, Mustard, Wild [14, 20]: 0
Plant response rating, Mustard, Wild [14, 21]: 0
Plant response rating, Mustard, Wild [14, 22]: 0
Plant response rating, Mustard, Wild [14, 23]: 0
Plant response rating, Sedge, Umbrella ([15]; 62 g ai/ha): 0
Plant response rating, Sedge, Umbrella ([15]; 250 g ai/ha): 0
Plant response rating, Ducksalad ([16]; 62 g ai/ha): 0
Plant response rating, Ducksalad ([16]; 250 g ai/ha): 0

From patent publication US20100267561A1, “HERBICIDAL PYRIDAZINONE DERIVATIVES” (priority 2007, published 2010)
